Reference: patent US20080317723A1, “LYMPHATIC ENDOTHELIAL CELLS MATERIALS AND METHODS” (VEGENICS LIMITED, priority 2001, published 2008)

What was measured:
Format in all cases: cell-based, human
HMVE cells [1] = test: Annexin-V staining of serum-starved HMVE cells with podoplanin co-staining; settings: 72 hours serum-free medium; podoplanin positive vs negative cells, FIG. 3
Procedure: FIG. 3. Quantitation of the Annexin-V positive cells (% of adherent cells) in the podoplanin positive and negative cell populations after 72 hours of serum starvation. Data represent mean values from five counted areas (×400) (mean±s.d.).
Analysis of endothelial cell apoptosis. For the apoptosis assay, 70,000 cells per well were seeded into 24-well plates. Treatments were done in duplicates and apoptosis was detected by measuring cytoplasmic histone-associated DNA fragments using the death detection ELISA PLUS kit (Roche, Indianapolis, Ind.). The following ranges of growth factor concentrations were tested: bFGF 10-20 ng/ml, PlGF-1 50-1000 ng/ml, VEGF 10-50 ng/ml, VEGF-C 50-1000 ng/ml, VEGF-D 50-1000 ng/ml, VEGF-C156S 50-1000 ng/ml and VEGF-E 50-1000 ng/ml. Annexin-V-FLUOS (Roche, Indianapolis, Ind.) was used to detect phosphatidylserine on the apoptotic cells by fluorescence microscopy according to the instructions of the manufacturer. The simultaneous staining with propidium iodide (1 μg/ml) was used for discriminating possible necrotic cells.
Annexin-V staining of the HMVE cells was performed after 72 hours of culture in serum-free medium alone (BSA) or with stimulation of VEGF or VEGF-C. Simultaneous staining using antibodies against podoplanin was used to distinguish lymphatic and blood vascular endothelial cells. […]

VEGFR-2/EpoR = test: Ba/F3 bioassay, viability (MTT) of VEGFR-2/EpoR cells; settings: FIG. 1B
Procedure: FIG. 1A-FIG. 1C. Analysis of the receptor-specificities of different VEGFs using the Ba/F3 bioassay. Measurement of the viability of Ba/F3 cells expressing the chimeric receptors VEGFR-1/EpoR (FIG. 1A), VEGFR-2/EpoR (FIG. 1B) or VEGFR-3/EpoR (FIG. 1C) in the presence of different VEGFs at indicated concentrations. Cell viability was determined using the MTT assay. Data represent the mean values from triplicate assays (mean±s.d.). FIG. 1D-FIG. 1G. Biosensor analysis of the interaction of VEGF-C (FIG. 1D, FIG. 1E) and VEGF-C156S (FIG. 1F, FIG. 1G) with VEGFR-3 (FIG. 1D, FIG. 1F) and VEGFR-2 (FIG. 1E, FIG. 1G). Chimeric receptor proteins were immobilized onto a carboxymethylated dextran surface. Growth factors were injected over the surface at a flow rate of 20 μl/min at the indicated concentrations. The sensorgrams shown have been subtracted with the corresponding signal obtained when the same sample was passed over a blank control channel.
Bioassay for VEGFR stimulation. […]
VEGF is an endothelial cell mitogen which has been also shown to protect endothelial cells from starvation and TNF-a induced apoptosis via activation of VEGFR-2 (Gerber et al, J. Biol. Chem., 273:30336-30343, 1998; Spyridopoulos et al., J. Mol. Cell. Cardiol., 29:1321-1330, 1997). […] The specificities of the growth factors used were determined using a cell survival bioassay. […]

HMVE cells [2] = test: Serum starvation-induced apoptosis, cytoplasmic histone-associated DNA fragments (ELISA), non-sorted HMVE cells; settings: non-sorted microvascular endothelial cells, serum-free 24 h, FIG. 2A
Source text: FIG. 2A-FIG. 2B. VEGFR-2 and VEGFR-3, but not VEGFR-1 activating ligands inhibit apoptosis of serum-deprived HMVE cells. Measurement of the cytoplasmic histone-associated DNA fragments (mono- and oligonucleosomes) in serum-starved HMVE cells consisting of two cell populations of blood vascular and lymphatic endothelial cells (FIG. 2A) or in the isolated cell populations after magnetic cell sorting using VEGFR-3 antibodies (FIG. 2B). The enrichment factor of cytoplasmic oligonucleosomes in the apoptotic cells grown for 24 h in serum-free medium (BSA) was chosen as 100 (%). Data represent mean values from three independent experiments (mean±s.d.). […] Analysis of endothelial cell apoptosis. For the apoptosis assay, 70,000 cells per well were seeded into 24-well plates. Treatments were done in duplicates and apoptosis was detected by measuring cytoplasmic histone-associated DNA fragments using the death detection ELISA PLUS kit (Roche, Indianapolis, Ind.). […] Annexin-V-FLUOS (Roche, Indianapolis, Ind.) was used to detect phosphatidylserine on the apoptotic cells by fluorescence microscopy according to the instructions of the manufacturer. The simultaneous staining with propidium iodide (1 μg/ml) was used for discriminating possible necrotic cells.

## VEGF
HMVE cells [1]
  Annexin-V positive cells / survival: strongly decreased the number of cells displaying Annexin-V positivity
VEGFR-2/EpoR
  survival of VEGFR-2/EpoR expressing cells: able to support the survival of the VEGFR-2/EpoR expressing cells
HMVE cells [2]
  protection from starvation induced DNA degradation (cytoplasmic histone-associated DNA fragments): able to protect microvascular endothelial cells from starvation induced DNA degradation

B1: VEGF-C156S: VEGFR-3 specific mutant form of VEGF-C, cysteine 156 changed into serine; recombinant human (Thr103 to Ile225) (protein, UniProt P49767 103-225, looked up, variant C156S)
chain: TEETIKFAAAHYNTEILKSIDNEWRKTQCMPREVCIDVGKEFGVATNTFFKPPSVSVYRCGGCCNSEGLQCMNTSTSYLSKTLFEITVPLSQGPKPVTISFANHTSCRCMSKLDVYRQVHSII
HMVE cells [1]
  Annexin-V positive cells / survival: increased the survival of mainly the lymphatic endothelial cells
VEGFR-2/EpoR
  survival of VEGFR-2/EpoR expressing cells: did not affect the survival of these cells
HMVE cells [2]
  protection from starvation induced DNA degradation (cytoplasmic histone-associated DNA fragments): able to protect microvascular endothelial cells from starvation induced DNA degradation
